Measured values reported in patent US11440899B2, “Pyrimidine TBK/IKKe inhibitor compounds and uses thereof” (Merck Patent GmbH, priority 2017, dated 2022).

Legend:
IKKe = IKKe (Homo sapiens (Human), UniProt Q14164); experiment: IKKe Biochemical Assay
Method in brief: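 Human IKKε activity was measured with compounds in a 10-point 1:4 dilution series, top concentration 30 uM final, in 1% DMSO final; 10 uM staurosporine served as the control. Enzyme and substrate were incubated 90 min at 25° C, then stopped, and substrate/product peaks were separated by microfluidic mobility-shift on a LabChip EZ Reader II.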

TBK1 = TBK1 (Homo sapiens (Human), UniProt Q9UHD2); experiment: TBK Biochemical Assay
Method in brief: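 Enzyme and substrate with compound (10-point 1:4 series, top 30 uM final, 1% DMSO) incubated 90 min at 25 °C, then stopped; substrate/product separated and read by LabChip mobility-shift, staurosporine 10 uM final as full-inhibition control.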

Chain of TBK1 (Q9UHD2 whole entry, species assumed): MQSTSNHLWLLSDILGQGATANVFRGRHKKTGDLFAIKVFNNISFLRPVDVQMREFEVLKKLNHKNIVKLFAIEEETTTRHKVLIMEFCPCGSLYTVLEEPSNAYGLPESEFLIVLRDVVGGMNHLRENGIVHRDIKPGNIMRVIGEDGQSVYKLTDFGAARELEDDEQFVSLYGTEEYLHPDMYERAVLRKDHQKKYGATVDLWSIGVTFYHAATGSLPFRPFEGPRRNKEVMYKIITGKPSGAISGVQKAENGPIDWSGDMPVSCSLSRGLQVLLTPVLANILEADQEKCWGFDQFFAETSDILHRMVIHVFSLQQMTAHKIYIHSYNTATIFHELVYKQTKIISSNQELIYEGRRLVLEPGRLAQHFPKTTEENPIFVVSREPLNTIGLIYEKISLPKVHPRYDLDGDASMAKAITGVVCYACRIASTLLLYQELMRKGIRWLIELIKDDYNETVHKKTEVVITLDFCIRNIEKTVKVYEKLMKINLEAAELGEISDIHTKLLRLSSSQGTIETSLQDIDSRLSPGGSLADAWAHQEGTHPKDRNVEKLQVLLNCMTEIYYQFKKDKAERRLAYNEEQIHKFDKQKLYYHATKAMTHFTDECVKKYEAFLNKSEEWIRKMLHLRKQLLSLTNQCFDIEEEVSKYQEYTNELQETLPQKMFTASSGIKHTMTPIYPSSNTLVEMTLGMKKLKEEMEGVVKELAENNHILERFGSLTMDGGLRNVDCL
Chain of IKKe (Q14164 whole entry, species assumed): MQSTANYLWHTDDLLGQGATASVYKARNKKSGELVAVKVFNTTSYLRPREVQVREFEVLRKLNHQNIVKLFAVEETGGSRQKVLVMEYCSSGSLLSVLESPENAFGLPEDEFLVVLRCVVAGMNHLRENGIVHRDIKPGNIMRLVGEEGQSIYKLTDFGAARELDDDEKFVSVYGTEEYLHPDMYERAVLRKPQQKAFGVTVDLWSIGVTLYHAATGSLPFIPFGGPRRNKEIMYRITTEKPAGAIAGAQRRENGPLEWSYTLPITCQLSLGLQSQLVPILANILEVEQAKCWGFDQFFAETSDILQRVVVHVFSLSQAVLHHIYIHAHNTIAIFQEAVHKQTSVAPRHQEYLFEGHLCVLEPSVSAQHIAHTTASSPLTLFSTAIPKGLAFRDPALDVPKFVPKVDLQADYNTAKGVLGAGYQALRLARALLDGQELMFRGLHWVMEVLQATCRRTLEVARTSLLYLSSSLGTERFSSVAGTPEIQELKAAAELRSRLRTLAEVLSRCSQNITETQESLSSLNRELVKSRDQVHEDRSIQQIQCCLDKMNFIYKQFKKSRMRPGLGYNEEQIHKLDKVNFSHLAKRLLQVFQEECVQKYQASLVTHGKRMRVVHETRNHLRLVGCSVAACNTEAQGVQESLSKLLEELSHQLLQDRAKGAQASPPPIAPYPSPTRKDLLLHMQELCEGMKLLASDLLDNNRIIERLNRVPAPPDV

IC50 (IKKe) [nM] | IC50 (TBK1) [nM] | Structure (SMILES)
< 100 | < 100 | COc1nc(Nc2cc(-c3ccc(O[C@@H]4CCN(C(=O)[C@H](C)O)CC4(F)F)c(C#N)c3)ncn2)ccc1N1CCN(C2COC2)CC1 [Example 92, 2-[[(4R)-3,3-difluoro-1-[(2S)-2-hydroxypropanoyl]piperidin-4-yl]oxy]-5-[6-([6-methoxy-5-[4-(oxetan-3-yl)piperazin-1-yl]pyridin-2-yl]amino)pyrimidin-4-yl]benzonitrile]
< 100 | < 100 | COc1nc(Nc2cc(-c3ccc(O[C@H]4CCN(C(=O)[C@H](C)O)CC4(F)F)c(C#N)c3)ncn2)ccc1C1CCN(C2COC2)CC1 [Example 93, 2-[[(4S)-3,3-difluoro-1-[(2S)-2-hydroxypropanoyl]piperidin-4-yl]oxy]-5-[6-([6-methoxy-5-[1-(oxetan-3-yl)piperidin-4-yl]pyridin-2-yl]amino)pyrimidin-4-yl]benzonitrile]
< 100 | < 100 | COc1nc(Nc2cc(-c3ccc(O[C@@H]4CCN(C(=O)[C@H](C)O)CC4(F)F)c(C#N)c3)ncn2)ccc1C1CCN(C2COC2)CC1 [Example 94, 2-[[(4R)-3,3-difluoro-1-[(2S)-2-hydroxypropanoyl]piperidin-4-yl]oxy]-5-[6-([6-methoxy-5-[1-(oxetan-3-yl)piperidin-4-yl]pyridin-2-yl]amino)pyrimidin-4-yl]benzonitrile]
< 100 | < 100 | COc1nc(Nc2cc(-c3ccc(O[C@H]4CCN(C(=O)[C@@H](C)O)CC4(F)F)c(C#N)c3)ncn2)ccc1N1CCN(C2COC2)CC1 [Example 95, 2-[[(4S)-3,3-difluoro-1-[(2R)-2-hydroxypropanoyl]piperidin-4-yl]oxy]-5-[6-([6-methoxy-5-[4-(oxetan-3-yl)piperazin-1-yl]pyridin-2-yl]amino)pyrimidin-4-yl]benzonitrile]
< 100 | < 100 | COc1nc(Nc2cc(-c3ccc(OC4CCN(C(=O)[C@@H](C)O)CC4(F)F)c(C#N)c3)ncn2)ccc1C1CCN(C2COC2)CC1 (stereo partly drawn) [Example 97, 2-([3,3-difluoro-1-[(2R)-2-hydroxypropanoyl]piperidin-4-yl]oxy)-5-[6-([6-methoxy-5-[1-(oxetan-3-yl)piperidin-4-yl]pyridin-2-yl]amino)pyrimidin-4-yl]benzonitrile]
< 100 | < 100 | COc1nc(Nc2cc(-c3ccc(O[C@@H]4CCN(C(=O)[C@@H](C)O)CC4(F)F)c(C#N)c3)ncn2)ccc1N1CCN(C2COC2)C[C@@H]1C [Example 98, 2-((R)-3,3-difluoro-1-((R)-2-hydroxypropanoyl)piperidin-4-yloxy)-5-(6-(6-methoxy-5-((S)-2-methyl-4-(oxetan-3-yl)piperazin-1-yl)pyridin-2-ylamino)pyrimidin-4-yl)benzonitrile]
< 100 | < 100 | COc1nc(Nc2cc(-c3ccc(O[C@H]4CCN(C(=O)[C@@H](C)O)CC4(F)F)c(C#N)c3)ncn2)ccc1N1CCN(C2COC2)C[C@@H]1C [Example 99, 2-((S)-3,3-difluoro-1-((R)-2-hydroxypropanoyl)piperidin-4-yloxy)-5-(6-(6-methoxy-5-((S)-2-methyl-4-(oxetan-3-yl)piperazin-1-yl)pyridin-2-ylamino)pyrimidin-4-yl)benzonitrile]
< 100 | < 100 | COc1nc(Nc2cc(-c3ccc(OC4CCOCC4)c(C#N)c3)ncn2)ccc1N1CCN(C2COC2)CC1 [Example 100, 5-[6-({6-methoxy-5-[4-(oxetan-3-yl)piperazin-1-yl]pyridin-2-yl}amino)pyrimidin-4-yl]-2-(oxan-4-yloxy)benzonitrile]
< 100 | < 100 | COc1nc(Nc2cc(-c3ccc(O[C@H]4CCN(C(=O)[C@H](C)O)CC4(F)F)c(C#N)c3)ncn2)ccc1N1CCN(C2COC2)C[C@@H]1C [Example 101, 2-[[(4S)-3,3-difluoro-1-[(2S)-2-hydroxypropanoyl]piperidin-4-yl]oxy]-5-[6-([6-methoxy-5-[(2S)-2-methyl-4-(oxetan-3-yl)piperazin-1-yl]pyridin-2-yl]amino)pyrimidin-4-yl]benzonitrile]
< 100 | < 100 | COc1nc(Nc2cc(-c3ccc(O[C@@H]4CCN(C(=O)[C@H](C)O)CC4(F)F)c(C#N)c3)ncn2)ccc1N1CCN(C2COC2)C[C@@H]1C [Example 102, 2-[[(4R)-3,3-difluoro-1-[(2S)-2-hydroxypropanoyl]piperidin-4-yl]oxy]-5-[6-([6-methoxy-5-[(2S)-2-methyl-4-(oxetan-3-yl)piperazin-1-yl]pyridin-2-yl]amino)pyrimidin-4-yl]benzonitrile]
< 100 | < 100 | COc1nc(Nc2cc(-c3ccc(O[C@H]4CCN(C(=O)[C@H](C)O)CC4(F)F)c(C#N)c3)ncn2)ccc1N1CCN(C2COC2)C[C@H]1C [Example 103, 2-[[(4S)-3,3-difluoro-1-[(2S)-2-hydroxypropanoyl]piperidin-4-yl]oxy]-5-[6-([6-methoxy-5-[(2R)-2-methyl-4-(oxetan-3-yl)piperazin-1-yl]pyridin-2-yl]amino)pyrimidin-4-yl]benzonitrile]
< 100 | < 100 | COc1nc(Nc2cc(-c3ccc(O[C@@H]4CCN(C(=O)[C@H](C)O)CC4(F)F)c(C#N)c3)ncn2)ccc1N1CCN(C2COC2)C[C@H]1C [Example 104, 2-[[(4R)-3,3-difluoro-1-[(2S)-2-hydroxypropanoyl]piperidin-4-yl]oxy]-5-[6-([6-methoxy-5-[(2R)-2-methyl-4-(oxetan-3-yl)piperazin-1-yl]pyridin-2-yl]amino)pyrimidin-4-yl]benzonitrile]
< 100 | < 100 | COc1nc(Nc2cc(-c3ccc(OC4CCN(C(=O)[C@H](C)O)CC4)c(C#N)c3)ncn2)ccc1C(=O)N(C)C [Example 105, 6-([6-[3-cyano-4-([1-[(2S)-2-hydroxypropanoyl]piperidin-4-yl]oxy)phenyl]pyrimidin-4-yl]amino)-2-methoxy-N,N-dimethylpyridine-3-carboxamide]
